Assay results from ChEMBL document CHEMBL4043218, “Analysis of the binding sites of vitamin D 1α-hydroxylase (CYP27B1) and vitamin D 24-hydroxylase (CYP24A1) for the design of selective CYP24A1 inhibitors: Homology modelling, molecular dynamics simulations and identification of key binding requirements” (Bioorg Med Chem, 2017).

Tests used:
Homo sapiens = organism: Homo sapiens; assay: Selectivity index, ratio of IC50 for human CYP24A1 to IC50 for human CYP27B1
[1] = biological target: T1, 1,25-dihydroxyvitamin D(3) 24-hydroxylase, mitochondrial (Homo sapiens, UniProt Q07973); assay: Inhibition of N-terminal MBP-tagged human CYP24A1 expressed in Escherichia coli assessed as reduction in […] activity incubated for 25 mins using Adx, AdR and 1,25(OH)2D3
T1 sequence (Q07973 whole entry): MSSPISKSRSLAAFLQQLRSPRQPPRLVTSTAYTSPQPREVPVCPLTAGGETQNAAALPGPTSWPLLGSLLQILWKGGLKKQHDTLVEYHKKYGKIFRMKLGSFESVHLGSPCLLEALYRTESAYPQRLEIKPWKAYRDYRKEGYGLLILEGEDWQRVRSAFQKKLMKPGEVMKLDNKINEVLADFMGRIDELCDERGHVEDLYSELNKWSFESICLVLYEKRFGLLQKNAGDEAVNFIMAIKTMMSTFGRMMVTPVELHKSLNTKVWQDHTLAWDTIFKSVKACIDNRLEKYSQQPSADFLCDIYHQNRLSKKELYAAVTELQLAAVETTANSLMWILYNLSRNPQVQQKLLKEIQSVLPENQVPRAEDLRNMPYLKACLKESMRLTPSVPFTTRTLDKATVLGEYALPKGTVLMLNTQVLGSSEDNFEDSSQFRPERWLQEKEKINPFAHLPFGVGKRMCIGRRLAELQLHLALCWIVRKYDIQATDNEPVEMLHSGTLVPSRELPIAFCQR

[2] = biological target: T2, 25-hydroxyvitamin D-1 alpha hydroxylase, mitochondrial (Homo sapiens, UniProt O15528); assay: Inhibition of human CYP27B1 expressed in Escherichia coli assessed as reduction in […] activity incubated for 25 mins using Adx, AdR and […]
T2 sequence (O15528 whole entry): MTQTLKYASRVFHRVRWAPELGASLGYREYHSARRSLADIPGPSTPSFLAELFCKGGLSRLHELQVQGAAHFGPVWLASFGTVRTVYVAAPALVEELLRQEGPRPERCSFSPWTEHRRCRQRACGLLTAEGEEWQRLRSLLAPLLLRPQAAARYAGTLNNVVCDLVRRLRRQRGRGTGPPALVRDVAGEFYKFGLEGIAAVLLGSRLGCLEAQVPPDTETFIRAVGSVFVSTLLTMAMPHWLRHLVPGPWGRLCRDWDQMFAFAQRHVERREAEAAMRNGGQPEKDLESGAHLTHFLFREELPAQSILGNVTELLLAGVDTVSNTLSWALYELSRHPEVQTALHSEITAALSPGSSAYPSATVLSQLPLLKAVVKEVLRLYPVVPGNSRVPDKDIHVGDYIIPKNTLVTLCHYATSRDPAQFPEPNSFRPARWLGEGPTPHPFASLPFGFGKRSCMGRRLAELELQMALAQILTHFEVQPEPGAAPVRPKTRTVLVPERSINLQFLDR

[3] = biological target: T2, 25-hydroxyvitamin D-1 alpha hydroxylase, mitochondrial; assay: Inhibition of human CYP27B1
[4] = biological target: T1, 1,25-dihydroxyvitamin D(3) 24-hydroxylase, mitochondrial; assay: Inhibition of human CYP24A1

SMILES	Ratio IC50 (Homo sapiens)	IC50 [1] [µM]	IC50 [2] [µM]	IC50 [3] [µM]	IC50 [4] [µM]
Cc1[nH]nc(O)c1C(c1ccc(OCc2ccncc2)cc1)c1c(O)n[nH]c1C	5	2.5	0.57		
CN(C)c1cccc2c(S(=O)(=O)NC(Cn3ccnc3)c3ccc(Cl)cc3Cl)cccc12 (configuration not stated)	47			0.0952	4.48
CN(C)CCn1nnnc1SCC(O)(Cn1ccnc1)c1ccc(Cl)cc1Cl (configuration not stated)	66			0.0602	> 10
Cc1[nH]nc(O)c1C(c1cccc(OCc2ccncc2)c1)c1c(O)n[nH]c1C	5	2.6	0.41		
